Test results reported in article PMC12903969, “Discovery of a Novel and Potent Kir4.1 Inhibitor as a Safe and Rapid‐Onset Antidepressant Agent in Mice” (Advanced Science, 2025).
“And” between values parts separate entries of the source, which are not always exact repeats. Equal values may be shown once. Read-outs that look alike come from different tables or passages of the source.

How the values were obtained:
[1] = target: T1, Kir2.1 (Homo sapiens, UniProt P63252); assay: Whole-cell patch clamp, Kir2.1; assay type: cell-based
T1 construct: host or cells: CHO-K1
T1 sequence (P63252 1-427): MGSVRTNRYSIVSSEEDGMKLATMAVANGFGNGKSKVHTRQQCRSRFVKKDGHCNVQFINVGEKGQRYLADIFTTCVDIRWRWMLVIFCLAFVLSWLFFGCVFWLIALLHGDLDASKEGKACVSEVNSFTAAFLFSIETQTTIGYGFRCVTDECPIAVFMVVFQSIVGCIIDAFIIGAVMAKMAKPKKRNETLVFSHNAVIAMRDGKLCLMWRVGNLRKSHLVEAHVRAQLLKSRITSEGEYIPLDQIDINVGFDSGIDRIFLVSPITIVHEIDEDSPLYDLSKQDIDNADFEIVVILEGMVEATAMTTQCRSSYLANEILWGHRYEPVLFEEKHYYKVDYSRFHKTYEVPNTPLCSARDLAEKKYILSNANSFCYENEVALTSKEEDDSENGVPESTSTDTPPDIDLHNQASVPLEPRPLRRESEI
Experimental: (§1) Plasmids encoding WT human potassium channels Kir1.1, Kir2.1, Kir2.2, Kir4.1, and Kir4.2 were obtained from the Beijing Genomics Institute. All point mutations were constructed using the QuickChange II Site‐Directed Mutagenesis Kit (Stratagene) and subsequently verified by sequencing.
CHO‐K1 cells were maintained in DMEM/F12 growth medium containing 10% fetal bovine serum. Plasmids encoding the target genes (3600 ng) and enhanced green fluorescent protein (400 ng) were cotransfected into cells using Lipofectamine 2000 (Invitrogen) in accordance with the manufacturer's instructions. Cells were seeded onto poly‐d‐lysine (PDL)‐coated glass coverslips 1 h prior to electrophysiological recordings. All cells were cultured under standard conditions of 5% CO2 at 37 °C.
Whole‐cell patch‐clamp recordings were obtained either in transiently transfected CHO‐K1 cells or in primary cultured astrocytes at room temperature using standard patch‐clamp techniques with an Axopatch‐700B amplifier (Axon Instruments). The signals were filtered at 2 kHz and sampled at 20 kHz using the Digidata 1440A interface (Axon Instruments). The resistance of borosilicate glass pipettes was typically 2–4 MΩ when filled with the internal solution. Drug application was facilitated using a BPS perfusion system (ALA Scientific Instruments). Macroscopic currents generated by expressed potassium channels were recorded under the voltage‐clamp conditions with an internal pipette solution composed of (in mM): 140 KCl, 5 NaCl, 1 CaCl2, 1 MgCl2, 10 HEPES, and 10 EGTA, pH 7.2 adjusted with KOH. The external solution contained (in mM): 140 NaCl, 5 KCl, 2 CaCl2, 1 MgCl2, 10 glucose, and 10 HEPES, pH 7.4 adjusted with NaOH. Currents were elicited with a hyperpolarized voltage at −120 mV from the holding potential of −80 mV, followed by a ramp voltage depolarizing to +50 mV. Astrocytic resting membrane potentials were recorded under current‐clamp conditions (I = 0 pA) using standard internal and external solutions, determined immediately after achieving whole‐cell mode.

[2] = test system: mice; assay: Rotarod test (RT); assay type: in vivo; conditions: chronic 10 mg kg−1 per day
Experimental: The rotarod test was designed to evaluate the coordination and motor performance of rodents. The speed and time were set for the rod rotators. All experimental mice were allowed to adapt to a lower speed (5 rpm). For the formal test, the mice were placed on a rod spinning at 20 rpm, and the duration that the mice were able to hold on the rod at this speed was recorded. The maximum test duration was 20 min.

[3] = test system: C57BL/6J mice; assay: Seizure threshold measurement in 6-Hz seizure test; assay type: in vivo; design: key to seizure incidence, Multiple dose-6 Hz / seizure incidence, Single dose-6 Hz: % of mice showing seizures; conditions: for seizure incidence, Multiple dose-6 Hz / seizure incidence, Single dose-6 Hz: JX3212 10 mpk
Excerpt: Male C57BL/6J mice were subjected to corneal electroshock stimulation using a Grass S48 stimulator (Grass Technologies) with standardized parameters: frequency, 6 Hz; rectangular pulse width, 0.2 ms; and duration, 3 s. Seizure activity was operationally defined as the occurrence of any of the following behaviors: forelimb clonus, postictal immobility, facial myoclonus, staring behavior, orofacial automatization (chewing/unilateral pawing), or Straub tail posture. […] The seizure incidence was compared between the vehicle‐ and JX3212‐treated groups, with the CS50 threshold calculated as the minimal current intensity required to induce seizures in 50% of the subjects via probit analysis.

[4] = test system: mice; assay: Acute forced swim test (FST); assay type: in vivo; conditions: 30 and 60 mg kg−1
Experimental: Mice were placed individually in a transparent glass cylinder (25 cm high, 10 cm wide) filled with water (temperature 23–25 °C) to a depth of 10 cm, and prevented from making contact with the bottom. Mice behaviors were videotaped from each side. The observation period lasted for 6 min, with the final 4 min used to measure immobile behavior, which was processed using the AnyMaze Tracking System (Stoelting).

[5] = target: T2, Kir1.1 (Homo sapiens, UniProt P48048); assay: Whole-cell patch clamp, Kir1.1; assay type: cell-based; conditions: mean ± SEM
T2 construct: host or cells: CHO-K1
Experimental: as §1
CHO‐K1 cells were maintained in DMEM/F12 growth medium containing 10% fetal bovine serum. Plasmids encoding the target genes (3600 ng) and enhanced green fluorescent protein (400 ng) were cotransfected into cells using Lipofectamine 2000 (Invitrogen) in accordance with the manufacturer's instructions. Cells were seeded onto poly‐d‐lysine (PDL)‐coated glass coverslips 1 h prior to electrophysiological recordings. […]
Whole‐cell patch‐clamp recordings were obtained either in transiently transfected CHO‐K1 cells or in primary cultured astrocytes at room temperature using standard patch‐clamp techniques with an Axopatch‐700B amplifier (Axon Instruments). […] Macroscopic currents generated by expressed potassium channels were recorded under the voltage‐clamp conditions with an internal pipette solution composed of (in mM): 140 KCl, 5 NaCl, 1 CaCl2, 1 MgCl2, 10 HEPES, and 10 EGTA, pH 7.2 adjusted with KOH. […] Astrocytic resting membrane potentials were recorded under current‐clamp conditions (I = 0 pA) using standard internal and external solutions, determined immediately after achieving whole‐cell mode.

[6] = target: T3, GluN1/GluN2B NMDA receptor (Homo sapiens, UniProt Q05586+Q13224); assay: Patch clamp of GluN1/GluN2B NMDA receptors in stable HEK293T cells; assay type: cell-based
T3 construct: expressed in transfected cells
Excerpt: For recording of GluN1/GluN2B NMDA receptors, HEK293T cells stably expressing GluN1 and GluN2B subunits were voltage‐clamped at −60 mV. […] The pipette solution contained (in mM):115 CsF, 10 CsCl, 10 HEPES and 10 BAPTA (pH 7.2 adjusted by CsOH). The bath solution contained (in mM): 140 NaCl, 2.8 KCl, 1 CaCl2, 10 HEPES and 20 sucrose (pH 7.4 adjusted with NaOH).

T3 sequence (Q13224 27-1484, other chains not shown): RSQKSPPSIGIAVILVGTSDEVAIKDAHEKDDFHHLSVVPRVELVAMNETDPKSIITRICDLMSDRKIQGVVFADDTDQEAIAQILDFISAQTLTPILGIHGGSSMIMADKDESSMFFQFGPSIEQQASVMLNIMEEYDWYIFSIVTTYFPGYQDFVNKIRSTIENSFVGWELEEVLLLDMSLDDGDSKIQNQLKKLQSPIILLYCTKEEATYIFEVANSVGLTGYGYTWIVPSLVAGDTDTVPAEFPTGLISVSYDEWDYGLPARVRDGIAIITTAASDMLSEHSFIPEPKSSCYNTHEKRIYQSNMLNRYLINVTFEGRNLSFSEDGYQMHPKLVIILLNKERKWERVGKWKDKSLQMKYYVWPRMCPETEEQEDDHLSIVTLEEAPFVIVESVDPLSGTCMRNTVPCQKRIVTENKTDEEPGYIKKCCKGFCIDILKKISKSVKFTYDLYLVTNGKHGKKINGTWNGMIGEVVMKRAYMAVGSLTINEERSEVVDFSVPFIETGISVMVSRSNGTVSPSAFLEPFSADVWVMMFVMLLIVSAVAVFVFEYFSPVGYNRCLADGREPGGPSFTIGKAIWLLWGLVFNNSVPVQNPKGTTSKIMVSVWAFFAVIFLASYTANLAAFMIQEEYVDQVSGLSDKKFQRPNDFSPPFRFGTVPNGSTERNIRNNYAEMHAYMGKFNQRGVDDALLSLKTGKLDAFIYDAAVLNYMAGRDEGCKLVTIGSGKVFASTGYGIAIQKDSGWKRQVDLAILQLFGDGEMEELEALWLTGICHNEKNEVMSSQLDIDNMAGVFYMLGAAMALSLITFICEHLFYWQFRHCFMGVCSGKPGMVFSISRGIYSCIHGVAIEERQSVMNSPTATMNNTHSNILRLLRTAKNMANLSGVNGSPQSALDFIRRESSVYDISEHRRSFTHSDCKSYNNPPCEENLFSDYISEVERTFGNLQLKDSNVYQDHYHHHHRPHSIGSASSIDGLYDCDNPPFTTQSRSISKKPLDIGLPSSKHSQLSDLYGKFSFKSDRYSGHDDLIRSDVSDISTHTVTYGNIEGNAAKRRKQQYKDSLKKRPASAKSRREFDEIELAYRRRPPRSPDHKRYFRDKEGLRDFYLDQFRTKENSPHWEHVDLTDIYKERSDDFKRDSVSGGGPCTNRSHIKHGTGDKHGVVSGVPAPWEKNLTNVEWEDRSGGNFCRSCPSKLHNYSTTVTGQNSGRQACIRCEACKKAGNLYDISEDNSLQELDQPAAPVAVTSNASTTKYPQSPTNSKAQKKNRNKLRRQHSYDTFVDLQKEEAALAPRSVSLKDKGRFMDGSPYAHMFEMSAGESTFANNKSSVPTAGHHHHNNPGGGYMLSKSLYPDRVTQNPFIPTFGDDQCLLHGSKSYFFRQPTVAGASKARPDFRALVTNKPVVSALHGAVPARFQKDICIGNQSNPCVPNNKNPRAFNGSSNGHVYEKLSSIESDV
T2 sequence (P48048 whole entry): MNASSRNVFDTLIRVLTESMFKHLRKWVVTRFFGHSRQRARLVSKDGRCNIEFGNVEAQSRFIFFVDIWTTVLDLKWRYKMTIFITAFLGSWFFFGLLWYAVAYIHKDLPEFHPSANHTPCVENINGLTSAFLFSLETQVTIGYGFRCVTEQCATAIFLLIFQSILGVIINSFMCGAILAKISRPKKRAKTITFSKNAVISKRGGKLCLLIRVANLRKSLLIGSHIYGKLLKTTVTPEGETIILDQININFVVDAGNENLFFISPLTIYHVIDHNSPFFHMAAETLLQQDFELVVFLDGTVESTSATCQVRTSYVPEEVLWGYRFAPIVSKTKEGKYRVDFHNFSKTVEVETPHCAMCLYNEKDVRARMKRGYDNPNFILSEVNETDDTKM

## c1ccc2c(c1)oc1ccc(Nc3ccnc(NCCCN4CCOCC4)n3)cc12 [JX3212, N^4-(dibenzo[b,d]furan-2-yl)-N^2-(3-morpholinopropyl)pyrimidine-2,4-diamine]
[1]; 3 µM, mean ± SEM, read-out: inhibition of Kir2.1
  inhibition at 3 µM: 49.9 ± 4.35%
[1]; JX3212 3 µM (Fig 2A)
  Kir isoforms: Kir2.1 inhibition, single recordings: 46.776 and 54.8667
[1]; JX3212 3 µM (Fig 2A), read-out: Kir isoforms: Kir2.1 inhibition, single recordings
  inhibition at 3 µM: 48.1%
[2]
  rotarod falling latency vs vehicle (in words): showed no significant effects
[3]; 10 mg kg−1, single or 14-day consecutive administration
  seizure susceptibility, 6-Hz seizure model (in words): did not alter seizure susceptibility
[3]; stimulus 18 mA
  seizure incidence, Multiple dose-6 Hz: 25
[3]; stimulus 20 mA
  seizure incidence, Multiple dose-6 Hz: 50
  seizure incidence, Single dose-6 Hz: 22.22
[3]; stimulus 22 mA
  seizure incidence, Multiple dose-6 Hz: 75
  seizure incidence, Single dose-6 Hz: 50
[3]; stimulus 24 mA
  seizure incidence, Single dose-6 Hz: 57.14
[3]; stimulus 26 mA
  seizure incidence, Multiple dose-6 Hz: 87.5
  seizure incidence, Single dose-6 Hz: 85.71
[4]
  immobility time in acute FST (in words): significantly reducing immobility time
[5]
  inhibition at 3 µM: 17.8 ± 8.26%
[6]
  IC50: 23.7 µM
[6]; concentration 10
  GLUN1/N2B inhibition, single recordings: 16.1554 and 31.4381 and 16.8072 and 24.8566
[6]; concentration 30
  GLUN1/N2B inhibition, single recordings: 75.9494 and 77.336 and 42.6087
[6]; concentration 50
  GLUN1/N2B inhibition, single recordings: 84.1069 and 85.4244 and 96.0913
[6]; concentration 100 (unit not given)
  GLUN1/N2B inhibition, single recordings: 91.8425 and 90.7749 and 99.6717 and 97.1777
[6]; concentration 300μ
  GLUN1/N2B inhibition, single recordings: 98.8477 and 99.3957 and 98.8626
